In brackets after ≈: the same amount, converted by molar mass.
Legend:
Enterobacter cloacae [1] = test: Antibacterial activity against Enterobacter cloacae IR32 producing class B beta-lactamase, NDM1 assessed as reduction in microbial growth incubated for 16 to 20 hrs by broth microdilution method; assay type: functional; conditions: time 16-20 hrs
Escherichia coli [2] = test: Antibacterial activity against Escherichia coli NIHJ JC-2 assessed as reduction in microbial growth incubated for 16 to 20 hrs by broth microdilution method; assay type: functional; conditions: time 16-20 hrs
Enterobacter cloacae [3] = test: Antibacterial activity against Enterobacter cloacae SR36276 producing class C beta-lactamase, AmpC assessed as reduction in microbial growth incubated for 16 to 20 hrs by broth microdilution method; assay type: functional; conditions: time 16-20 hrs
Klebsiella pneumoniae [4] = test: Antibacterial activity against Klebsiella pneumoniae JMI:211 producing class A beta-lactamase, KPC-2 assessed as reduction in microbial growth incubated for 16 to 20 hrs by broth microdilution method; assay type: functional; conditions: time 16-20 hrs
Klebsiella pneumoniae [5] = test: Antibacterial activity against Klebsiella pneumoniae PLE producing class D beta-lactamase, OXA-48 assessed as reduction in microbial growth incubated for 16 to 20 hrs by broth microdilution method; assay type: functional; conditions: time 16-20 hrs
Escherichia coli [6] = test: Antibacterial activity against Escherichia coli SR34100 producing class A beta-lactamase, CTX-M-15 assessed as reduction in microbial growth incubated for 16 to 20 hrs by broth microdilution method; assay type: functional; conditions: time 16-20 hrs
Klebsiella pneumoniae [7] = test: Antibacterial activity against Klebsiella pneumoniae ATCC13883 assessed as reduction in microbial growth incubated for 16 to 20 hrs by broth microdilution method; assay type: functional; conditions: time 16-20 hrs
[8] = Inhibition of CMY-2 in Escherichia coil BL21 assessed as inhibition of nitrocefin hydrolysis measured every 3 mins for 15 mins by UV spectrophotometer analysis; design: species or system Escherichia coli BL21
Escherichia coli [9] = test: Antibacterial activity against Escherichia coli NIHJ JC-2 strain assessed as reduction in microbial growth incubated for 16 to 20 hrs in presence of avibactam by broth microdilution method; assay type: functional; conditions: time 16-20 hrs
Enterobacterales [10] = test: Antimicrobial activity against Enterobacterales producing OXA-48 assessed as reduction in microbial growth measured after 16 to 20 hrs in presence of avibactam by broth microdilution method; assay type: functional; conditions: time 16-20 hrs
Enterobacterales [11] = test: Antimicrobial activity against Enterobacterales producing VIM assessed as reduction in microbial growth measured after 16 to 20 hrs in presence of avibactam by broth microdilution method; assay type: functional; conditions: time 16-20 hrs
Enterobacterales [12] = test: Antimicrobial activity against Enterobacterales producing KPC assessed as reduction in microbial growth measured after 16 to 20 hrs in presence of avibactam by broth microdilution method; assay type: functional; conditions: time 16-20 hrs
Enterobacterales [13] = test: Antimicrobial activity against Enterobacterales producing NDM assessed as reduction in microbial growth measured after 16 to 20 hrs in presence of avibactam by broth microdilution method; assay type: functional; conditions: time 16-20 hrs
Escherichia coli [14] = test: Antibacterial activity against Escherichia coli BL21(DE3) transfected with pET9a empty vector incubated for 16 to 20 hrs by broth microdilution method; assay type: functional; conditions: time 16-20 hrs
Klebsiella pneumoniae [15] = test: Antibacterial activity against Klebsiella pneumoniae PLE producing class D beta lactamase, OXA-48 assessed as reduction in microbial growth incubated for 16 to 20 hrs in presence of avibactam by broth microdilution method; assay type: functional; conditions: time 16-20 hrs
Enterobacter cloacae [16] = test: Antibacterial activity against Enterobacter cloacae SR36276 producing class C beta lactamase, AmpC assessed as reduction in microbial growth incubated for 16 to 20 hrs in presence of avibactam by broth microdilution method; assay type: functional; conditions: time 16-20 hrs
Klebsiella pneumoniae [17] = test: Antibacterial activity against Klebsiella pneumonia ATCC 13883 infected in cyclophosphamide-induced neutropenic Jcl:ICR mouse model assessed as log10 reduction in CFU at 3 mg/kg, sc administered at 2, 5 and 8 hrs after infection and measured at 10 hrs after infection; assay type: functional
Enterobacter cloacae [18] = test: Antibacterial activity against Enterobacter cloacae IR32 producing class B beta-lactamase, NDM-1 assessed as reduction in microbial growth incubated for 16 to 20 hrs in presence of avibactam by broth microdilution method; assay type: functional; conditions: time 16-20 hrs
Escherichia coli [19] = test: Antibacterial activity against Escherichia coli SR34100 producing class A beta lactamase, CTX-M-15 assessed as reduction in microbial growth incubated for 16 to 20 hrs in presence of avibactam by broth microdilution method
Klebsiella pneumoniae [20] = test: Antibacterial activity against Klebsiella pneumoniae JMI:211 producing class A beta lactamase, KPC-2 assessed as reduction in microbial, growth incubated for 16 to 20 hrs in presence of avibactam by broth microdilution method; assay type: functional; conditions: time 16-20 hrs
Escherichia coli [21] = test: Antibacterial activity against Escherichia coli BL21(DE3) transfected with pET9a vector harboring class A beta lactamase, CTX-M-15 incubated for 16 to 20 hrs by broth microdilution method; assay type: functional; conditions: time 16-20 hrs
Enterobacter cloacae [22] = test: Antibacterial activity against Enterobacter cloacae 1,261,347 producing class A beta lactamase, PER-2 assessed as reduction in microbial growth incubated for 16 to 20 hrs in presence of avibactam by broth microdilution method; assay type: functional; conditions: time 16-20 hrs
Escherichia coli [23] = test: Antibacterial activity against Escherichia coli BL21(DE3) transfected with pET9a vector harboring class C beta lactamase, AmpC incubated for 16 to 20 hrs by broth microdilution method; assay type: functional; conditions: time 16-20 hrs
Klebsiella pneumoniae [24] = test: Antibacterial activity against Klebsiella pneumonia ATCC 13883 infected in cyclophosphamide-induced neutropenic Jcl:ICR mouse model assessed as log10 reduction in CFU at 10 mg/kg, sc administered at 2, 5 and 8 hrs after infection and measured at 10 hrs after infection; assay type: functional
Escherichia coli [25] = test: Antibacterial activity against Escherichia coli BL21(DE3) transfected with pET9a vector harboring class D beta lactamase, OXA-48 incubated for 16 to 20 hrs by broth microdilution method; assay type: functional; conditions: time 16-20 hrs
Escherichia coli [26] = test: Antibacterial activity against Escherichia coli BL21(DE3) transfected with pET9a vector harboring class B beta lactamase, NDM-1 incubated for 16 to 20 hrs by broth microdilution method; assay type: functional; conditions: time 16-20 hrs

C[C@H](O/N=C(\C(=O)N[C@@H]1C(=O)N2[C@@H]1[S@@+]([O-])C[C@@H]1CC(=O)O[C@@]12C(=O)O)c1csc(N)n1)C(=O)O (stereo in doubt)
MIC (Enterobacter cloacae [1]): 0.5 µg/mL
MIC (Escherichia coli [2]): 0.25 µg/mL
MIC (Enterobacter cloacae [3]): 0.25 µg/mL
MIC (Klebsiella pneumoniae [4]): 0.5 µg/mL
MIC (Klebsiella pneumoniae [5]): 1 µg/mL
MIC (Escherichia coli [6]): 1 µg/mL

Nc1nc(/C(=N/OC2(C(=O)O)CC2)C(=O)N[C@@H]2C(=O)N3[C@@H]2[S@@+]([O-])C[C@@H]2CC(=O)O[C@@]23C(=O)O)cs1 (stereo in doubt)
MIC (Enterobacter cloacae [1]): 0.25 µg/mL
MIC (Escherichia coli [2]): 0.25 µg/mL
MIC (Enterobacter cloacae [3]): 0.25 µg/mL
MIC (Klebsiella pneumoniae [4]): 0.5 µg/mL
MIC (Klebsiella pneumoniae [5]): 0.5 µg/mL
MIC (Escherichia coli [6]): 0.5 µg/mL

Nc1nc(/C(=N/OCC(=O)O)C(=O)N[C@@H]2C(=O)N3[C@@H]2SC[C@@H]2CC(=O)O[C@@]23C(=O)O)cs1 (stereo in doubt)
MIC (Klebsiella pneumoniae [7]): 0.125 µg/mL
Ki [8]: 400 nM
MIC (Enterobacter cloacae [1]): 0.125 µg/mL
MIC (Escherichia coli [2]): 0.063 µg/mL
MIC (Enterobacter cloacae [3]): 8 µg/mL
MIC (Klebsiella pneumoniae [4]): 0.125 µg/mL
MIC (Klebsiella pneumoniae [5]): 1 µg/mL
MIC (Escherichia coli [6]): 0.25 µg/mL

CCO/N=C(\C(=O)N[C@@H]1C(=O)N2[C@@H]1[S@@+]([O-])C[C@@H]1CC(=O)O[C@@]12C(=O)O)c1csc(N)n1 (stereo in doubt)
MIC (Enterobacter cloacae [1]): 0.5 µg/mL
MIC (Escherichia coli [2]): 0.25 µg/mL
MIC (Enterobacter cloacae [3]): 1 µg/mL
MIC (Klebsiella pneumoniae [4]): 0.5 µg/mL
MIC (Klebsiella pneumoniae [5]): 4 µg/mL
MIC (Escherichia coli [6]): 0.5 µg/mL

Nc1nc(/C(=N/OC2(C(=O)O)CC2)C(=O)N[C@@H]2C(=O)N3[C@@H]2SC[C@@H]2CC(=O)O[C@@]23C(=O)O)cs1 (stereo in doubt)
MIC (Enterobacter cloacae [1]): 0.25 µg/mL
MIC (Escherichia coli [2]): 0.125 µg/mL
MIC (Enterobacter cloacae [3]): 8 µg/mL
MIC (Klebsiella pneumoniae [4]): 0.5 µg/mL
MIC (Klebsiella pneumoniae [5]): 1 µg/mL
MIC (Escherichia coli [6]): 0.25 µg/mL

C[C@@H](O/N=C(\C(=O)N[C@@H]1C(=O)N2[C@@H]1[S@@+]([O-])C[C@@H]1CC(=O)O[C@@]12C(=O)O)c1csc(N)n1)C(=O)O (stereo in doubt)
MIC (Enterobacter cloacae [1]): 0.125 µg/mL
MIC (Escherichia coli [2]): 0.125 µg/mL
MIC (Enterobacter cloacae [3]): 0.25 µg/mL
MIC (Klebsiella pneumoniae [4]): 0.25 µg/mL
MIC (Klebsiella pneumoniae [5]): 0.5 µg/mL
MIC (Escherichia coli [6]): 0.5 µg/mL

C[C@H](O/N=C(\C(=O)N[C@@H]1C(=O)N2[C@@H]1SC[C@@H]1CC(=O)O[C@@]12C(=O)O)c1csc(N)n1)C(=O)O (stereo in doubt)
MIC (Enterobacter cloacae [1]): 0.25 µg/mL
MIC (Escherichia coli [2]): 0.125 µg/mL
MIC (Enterobacter cloacae [3]): 16 µg/mL
MIC (Klebsiella pneumoniae [4]): 0.25 µg/mL
MIC (Klebsiella pneumoniae [5]): 0.5 µg/mL
MIC (Escherichia coli [6]): 0.5 µg/mL

C[C@H]1[C@H](NC(=O)/C(=N\OC(C)(C)C(=O)O)c2csc(N)n2)C(=O)N1S(=O)(=O)O (stereo in doubt) [AZTREONAM]
MIC (Escherichia coli [9]): 0.125 µg/mL
MIC50 (Enterobacterales [10]): 0.063 µg/mL
MIC90 (Enterobacterales [10]): 0.25 µg/mL
MIC50 (Enterobacterales [11]): 0.25 µg/mL
MIC90 (Enterobacterales [11]): 2 µg/mL
MIC50 (Enterobacterales [12]): 0.5 µg/mL
MIC90 (Enterobacterales [12]): 1 µg/mL
MIC50 (Enterobacterales [13]): 0.25 µg/mL
MIC90 (Enterobacterales [13]): 1 µg/mL

CC(C)(O/N=C(\C(=O)N[C@@H]1C(=O)N2C(C(=O)[O-])=C(C[n+]3ccccc3)CS[C@H]12)c1csc(N)n1)C(=O)O [CEFTAZIDIME]
MIC (Klebsiella pneumoniae [7]): 0.25 µg/mL
MIC (Escherichia coli [9]): 0.25 µg/mL
MIC (Enterobacter cloacae [1]): > 32 µg/mL
MIC (Escherichia coli [14]): 0.063 µg/mL (≈ 0.115 µM)
MIC (Escherichia coli [2]): 0.25 µg/mL
MIC (Enterobacter cloacae [3]): > 32 µg/mL
MIC (Klebsiella pneumoniae [15]): 0.25 µg/mL
MIC (Enterobacter cloacae [16]): 1 µg/mL
Activity (Klebsiella pneumoniae [17]): 2.67 log10CFU
MIC (Enterobacter cloacae [18]): > 32 µg/mL
MIC (Escherichia coli [19]): 1 µg/mL
MIC (Klebsiella pneumoniae [20]): 1 µg/mL
MIC (Klebsiella pneumoniae [5]): 1 µg/mL
MIC (Escherichia coli [6]): > 32 µg/mL
MIC (Escherichia coli [21]): 0.25 µg/mL (≈ 0.457 µM)
MIC50 (Enterobacterales [10]): 0.125 µg/mL
MIC90 (Enterobacterales [10]): 4 µg/mL
MIC (Enterobacter cloacae [22]): > 32 µg/mL
MIC (Escherichia coli [23]): 0.25 µg/mL (≈ 0.457 µM)
MIC50 (Enterobacterales [11]): > 64 µg/mL
MIC90 (Enterobacterales [11]): > 64 µg/mL
Activity (Klebsiella pneumoniae [24]): 3.05 log10CFU
MIC (Escherichia coli [25]): 0.063 µg/mL (≈ 0.115 µM)
MIC50 (Enterobacterales [12]): 4 µg/mL
MIC90 (Enterobacterales [12]): > 64 µg/mL
MIC50 (Enterobacterales [13]): > 64 µg/mL
MIC90 (Enterobacterales [13]): > 64 µg/mL
MIC (Escherichia coli [26]): > 16 µg/mL
